# Values joined by “and” are separate entries in the source; they are usually repeats but may differ in a detail not shown here. Equal values may be shown once. Where a name gives a salt, the structure may show the parent alone.
# Legend:
# [1] = test system: SH-SY5Y cells treated with extracellular Aβ42; assay: MTT assay of cell viability in the presence of extracellular Aβ42; assay type: cell-based; conditions: for cell viability (MTT): hydrochloride
# Procedure: The compound and target peptide were added simultaneously and incubated at 37° C. followed by cellular viability measurement using MTT assay. […] Data are represented as mean percentage viability, with no treatment controls set as 100%, n=3 and the error bars represent standard error.
# The MTT assay provides a colorimetric analysis of cell viability by the conversion of MTT into formazan product by the mitochondrial enzyme succinate dehydrogenase. For cytotoxicity experiments cells were washed twice with Dulbecco's PBS followed by trypsinisation of cells, centrifugation at 1800 rpm and seeding the cells on 96 well flat bottom plates (Costar) in Opti-MEM media without phenol red supplemented with 1.5% FCS, 1% L-glutamine, 1% Penicillin-streptomycin (P/S) and 1% non essential amino acids (NEAA).
# The cells were seeded at 1×10^5/ml density in a 96 well flat bottom plate (Costar) and incubated for 24 hr in a humidified incubator at 37° C. with 5% CO2.
# After 24 hr; 50 μl of the media was removed and 10 μl of MTT (2.5 mg/ml) was added to the cells. This was followed by incubation for further 4 hr at 37° C. and 5% CO2. MTT reduction was characterized by adding 100 μl solubilization solution containing 50 ml isopropyl alcohol and 197 μl of 37% HCl. The cytotoxicity was determined by measuring the absorbance at 570 nm using Polarstar BMG labtech plate reader.
# For the MTT cytotoxicity assay, A-77636 was diluted in the Opti-MEM media supplemented with 1.5% FCS, 1% P/S, 1% L-glutamine and 1% NEAA. The target compound was added to the SH-SY5Y cells at concentrations of 100 μM, 10 μM, 1 μM, 100 nM, 10 nM and 1 nM.
# The cells were seeded at 1×10^5/ml density in a 96 well flat bottom plate (Costar) and incubated for 24 hr in a humidified incubator at 37° C. with 5% CO2. […] The cells were then incubated for 24 hr in the humidified incubator at 37° C. in 5% CO2.
# After 24 hr; 500 of the media was removed and 10 μl of MTT (2.5 mg/ml) was added to the cells. This was followed by incubation for further 4 hr at 37° C. and 5% CO2. MTT reduction was characterized by adding 100 μl solubilization solution containing 50 ml isopropyl alcohol and 197 μl of 37% HCl. The 96 well plates were kept at room temperature for 6 hr to dissolve the formazan crystals. The cytotoxicity was determined by measuring the absorbance at 570 nm using Polarstar BMG labtech plate reader.
# [2] = test system: SHSY5Y cells treated with Aβ42 (1 μM); assay: Cyto Tox-One LDH (lactate dehydrogenase) release assay; assay type: cell-based; conditions: for LDH release: SHSY5Y cells, Exp 1-3 and Avg, hydrochloride;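 as to all read-outs here: fluorescent readout of resorufin formed from resazurin in proportion to released LDH (excitation 560 nm, emission 590 nm), with detergent-lysed dead cells taken as 100% maximal release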
# Source text: The LDH assay provides the measure of cytotoxicity, wherein the amount of LDH released quantifies cell membrane damage, caused either by apoptosis or necrosis^13,15. The commercially available Cyto Tox-One assay (Promega; G7890) was used here which provides a fluorescent measure of LDH release, wherein the reduction of resazurin dye to resofurin is coupled through enzymatic conversion involving NADH. The generation of fluorescent dye resofurin is proportional to the amount of LDH release.
# For the LDH cytotoxicity assay, A-77636 was diluted in the Opti-MEM media supplemented with 1.5% FCS, 1% P/S, 1% L-glutamine and 1% NEAA. A-77636 was added to the SHSY5Y cells at concentrations of 100 μM, 10 μM, 1 μM, 100 nM, 10 nM and 1 nM.
# The cells were seeded at 1×10^5/ml density in a 96 well black, flat bottom plate (BD Biosciences) and incubated for 24 hr in a humidified incubator at 37° C. with 5% CO2. […] The final concentration of the target peptide and A-77636 within the cells was 1 μM:100 μM, 1 μM:10 μM, 1 μM:1 μM, 1 μM:100 nM, 1 μM:10 nM, and 1 μM:1 nM respectively. The cells were then incubated for 24 hr in the humidified incubator at 37° C. in 5% CO2.
# After 24 hr, the 96 well plates were removed from the incubator and equilibrated at 22° C. for 30 min. The Cyto Tox-One reagent was prepared according to the manufacturer's protocol by equilibrating the substrate mix at 22° C. and thawing the assay buffer at 37° C. in a water bath. This was followed by adding 11 ml of assay buffer to each vial of substrate mix. 100 μl of Cyto Tox-One reagent was added to each well. The preparation and addition of Cyto Tox-One reagent was undertaken in the dark to avoid increased background fluorescence and stored at −20° C. until required. The cells were further incubated at 22° C. for 10 min followed by addition of stop solution to the wells in the same order as that of the Cyto Tox-One reagent to avoid increased variation in the results. The stop solution stops formation of fluorescent product resofurin. The maximum LDH release (set as 100%) for each experiment was determined by adding 2 μl of lysis solution (9% triton X 100, Promega) to the cells prior to the addition of Cyto Tox-One reagent, providing a dead cell control. […] The 96 well plates were then kept on the shaker for 10 sec and the fluorescence was measured immediately with an excitation at 560 nm and emission at 590 nm using a Polarstar BMG plate reader.
# [3] = known, reference 16; cited from earlier work
# [4] = test system: Parkinson's disease in animal models; conditions: known, reference 9; cited from earlier work
smiles,measurement,setting,value
"Br.C=CCN1CCc2c(cc(O)c(O)c2Br)[C@@H](c2ccccc2)C1 [Compound A, R(+)-6-Bromo-7,8-dihydroxy-3-allyl-1-phenyl-2,3,4,5-tetrahydro-1H-3-benzazepine hydrobromide, reference compound]",inhibition of Aβ42 toxicity,"[1]; D1 receptor agonist screen, SH-SY5Y cells, Aβ42 (1 μM), 24 hr, MTT",partial inhibition
same,cellular viability (MTT),"[1]; D1 receptor agonist screen, SH-SY5Y cells, added simultaneously with Aβ42 (1 μM), 24 hr, no treatment controls = 100%, p<0.05",81%
"NC[C@@H]1O[C@H](C23CC4CC(CC(C4)C2)C3)Cc2c1ccc(O)c2O [Compound A-77636, (1R,3S) 3-(1′-adamantyl)-1-aminomethyl-3,4-dihydro-5,6-dihydroxy-1H-2-benzopyran hydrochloride]",inhibition of the toxic effects of Aβ42,"[1]; 1 μM A-77636, 1 μM Aβ42, MTT, Table 1",capable of inhibiting the toxic effects of Aβ42
same,activity against Aβ42 toxicity in MTT assay,"[1]; A-77636 at 1 nM, SH-SY5Y cells with 1 μM Aβ42",inactive
same,toxicity in MTT assay,"[1]; A-77636 at 100 μM, SH-SY5Y cells with 1 μM Aβ42",toxic
same,activity against Aβ42 toxicity in MTT assay,"[1]; A-77636 from 10 nM to 10 μM, SH-SY5Y cells with 1 μM Aβ42",active
same,cell viability (MTT),"[1]; SH-SY5Y cells, 1 μM Aβ42 + 1 μM A-77636, 24 hr, Aβ42 −ve cells = 100%, Experiments 1-3 and Average",82% and 69% and 92%
same,cell viability (MTT),"[1]; SH-SY5Y cells, 1 μM Aβ42 + 1 μM A-77636, 24 hr, Aβ42 −ve cells = 100%, Experiments 1-3 and Average, mean",81%
same,cell viability (MTT),"[1]; SHSY5Y cells, 1 μM Aβ42 + 1 nM A-77636, 24 hr, Exp 1-3 and Avg",71% and 67%
same,cell viability (MTT),"[1]; SHSY5Y cells, 1 μM Aβ42 + 1 nM A-77636, 24 hr, Exp 1-3 and Avg, mean of three experiments",68%
same,cell viability (MTT),"[1]; SHSY5Y cells, 1 μM Aβ42 + 10 nM A-77636, 24 hr, Exp 1-3 and Avg",80% and 74% and 84%
same,cell viability (MTT),"[1]; SHSY5Y cells, 1 μM Aβ42 + 10 nM A-77636, 24 hr, Exp 1-3 and Avg, mean of three experiments",79%
same,cell viability (MTT),"[1]; SHSY5Y cells, 1 μM Aβ42 + 100 nM A-77636, 24 hr, Exp 1-3 and Avg",78% and 74% and 81%
same,cell viability (MTT),"[1]; SHSY5Y cells, 1 μM Aβ42 + 100 nM A-77636, 24 hr, Exp 1-3 and Avg, mean of three experiments",77%
same,cell viability (MTT),"[1]; SHSY5Y cells, 1 μM Aβ42 + 1 μM A-77636, 24 hr, Exp 1-3 and Avg (Table 2)",87% and 90% and 86%
same,cell viability (MTT),"[1]; SHSY5Y cells, 1 μM Aβ42 + 10 μM A-77636, 24 hr, Exp 1-3 and Avg",84% and 81% and 86%
same,cell viability (MTT),"[1]; SHSY5Y cells, 1 μM Aβ42 + 10 μM A-77636, 24 hr, Exp 1-3 and Avg, mean of three experiments",83%
same,cell viability (MTT),"[1]; SHSY5Y cells, 1 μM Aβ42 + 100 μM A-77636, 24 hr, Exp 1-3 and Avg",9% and 4%
same,cell viability (MTT),"[1]; SHSY5Y cells, 1 μM Aβ42 + 100 μM A-77636, 24 hr, Exp 1-3 and Avg, mean of three experiments",6%
same,toxicity in LDH assay,"[2]; A-77636 at 100 μM, 1 μM Aβ42",possibly toxic
same,LDH release,"[2]; 1 μM Aβ42 + 1 nM A-77636, 24 hr",35% and 38% and 61%
same,LDH release,"[2]; 1 μM Aβ42 + 1 nM A-77636, 24 hr, mean",45%
same,LDH release,"[2]; 1 μM Aβ42 + 10 nM A-77636, 24 hr",35% and 39% and 56%
same,LDH release,"[2]; 1 μM Aβ42 + 10 nM A-77636, 24 hr, mean",43%
same,LDH release,"[2]; 1 μM Aβ42 + 100 nM A-77636, 24 hr",20% and 23% and 32%
same,LDH release,"[2]; 1 μM Aβ42 + 100 nM A-77636, 24 hr, mean",25%
same,LDH release,"[2]; 1 μM Aβ42 + 1 μM A-77636, 24 hr",27% and 48% and 43%
same,LDH release,"[2]; 1 μM Aβ42 + 1 μM A-77636, 24 hr, mean",39%
same,LDH release,"[2]; 1 μM Aβ42 + 10 μM A-77636, 24 hr",33% and 47% and 52%
same,LDH release,"[2]; 1 μM Aβ42 + 10 μM A-77636, 24 hr, mean",44%
same,LDH release,"[2]; 1 μM Aβ42 + 100 μM A-77636, 24 hr, LDH max (dead cells) = 100",61% and 53% and 64%
same,effect on Aβ42 toxicity in LDH assay,"[2]; all concentrations from 100 μM to 1 nM, 1 μM Aβ42",reduces Aβ42 toxicity
same,crossing of the blood-brain barrier,[3],cross the blood-brain barrier
same,activity against Parkinson's disease in animal models,[4],activity against Parkinson's disease
